From ChEMBL document CHEMBL2385061, “Synthesis and carbonic anhydrase inhibitory properties of sulfamides structurally related to dopamine” (Bioorg Med Chem, 2013) come the findings set out here.

Test [1] concerns the target Carbonic anhydrase 5A, mitochondrial (Homo sapiens, UniProt P35218). Put plainly: Inhibition of human carbonic anhydrase-5A preincubated for 15 mins by stopped-flow CO2 hydration assay.
The target in test [2] is Carbonic anhydrase 9 (Homo sapiens, UniProt Q16790). Description: Inhibition of human carbonic anhydrase-9 preincubated for 15 mins by stopped-flow CO2 hydration assay.

Carbonic anhydrase 5A, mitochondrial, sequence (P35218 whole entry): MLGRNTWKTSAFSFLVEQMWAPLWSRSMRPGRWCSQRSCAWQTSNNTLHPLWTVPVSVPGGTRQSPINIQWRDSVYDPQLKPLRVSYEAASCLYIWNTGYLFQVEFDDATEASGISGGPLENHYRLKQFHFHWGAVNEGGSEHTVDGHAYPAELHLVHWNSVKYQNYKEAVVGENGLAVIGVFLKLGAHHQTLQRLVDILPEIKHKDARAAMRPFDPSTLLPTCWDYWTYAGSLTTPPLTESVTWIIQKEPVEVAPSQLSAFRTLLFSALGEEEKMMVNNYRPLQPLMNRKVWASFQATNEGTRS

Turning to `COc1cc(CCNS(N)(=O)=O)cc(OC)c1OC`, the Ki in test [1] was above 50 µM; in test [2], 0.221 µM.
Regarding `COc1cccc(CCNS(N)(=O)=O)c1OC`, the Ki in test [1] and in test [2] was above 50 µM each time.
Consider `COc1ccc(CCNS(N)(=O)=O)cc1OC`, for which the Ki in test [1] was found to be 2.28 µM; in test [2], 0.092 µM.
For `COc1ccc(CCNS(N)(=O)=O)cc1` the same measures were 3.25 µM and 0.376 µM.
The corresponding values for `COc1ccccc1CCNS(N)(=O)=O` are 3.34 µM and 0.041 µM.
